# Legend:
# [1] = system: 2D cultured dopaminergic neurons; design: method as in Sharma et al., 2010; settings: ref Sharma et al., 2010; cited from earlier work
# [2] = system: automated midbrain organoids (AMOs); assay: Viability of 3D AMOs (CellTiter-Glo 3D) in the 2D vs 3D comparison; assay type: cell-based, human; settings: for IC50: Homo sapiens, 48 h exposure from day 50
# Experimental: We cultured AMOs for 47 days in our automated system as described above. On day 47, we exchanged the organoid medium to a minimal tox medium (TM, consisting of DMEM/F-12 with 1% N2 supplement and 1% penicillin/streptomycin/glutamine) to reduce possible interference from antioxidants in the B27 media supplement. The next day, we treated the AMOs with the compounds from the library at a concentration of 100 μM in TM with some deviations due to solubility (see Supplementary Table 1 for a complete list of compounds including their final concentrations in the screen). DMSO control samples contained 0.5% (v/v) DMSO, which is equivalent to the amount of solvent in the samples that received compound treatment. After 48 h of incubation with the compounds, we either directly processed the organoids for the 48-h time point or renewed the compounds in TM once to achieve 96 h of incubation. Following either 48 or 96 h of compound incubation, we used the CellTiter-Glo 3D cell viability assay (Promega) to measure the viability of individual organoids, as previously described (Renner et al., [2020]). Briefly, the 96-well plates of AMOs and the reagents were brought to room temperature for 30 min. We adjusted the media volume of each well to 55 μl and added an equal volume (55 μl) of the CellTiter-Glo 3D reagent. Next, the samples were shaken on a Thermomixer (Eppendorf) at 900 rpm for 5 min and then incubated for 25 min at room temperature while protected from light. To minimize signal cross-talk between adjacent wells, we transferred the contents of the clear 96-well culture plates to white/opaque 384-well Lumitrac plates (Greiner) with two technical replicates (20 μl each) per sample, after the incubation. We recorded the luminescence immediately after the transfer using a Synergy Mx plate reader (BioTek). We outputted the results to Microsoft Excel for reformatting and then transferred them to GraphPad Prism v9.0.1 (Graphpad Software, Inc.) for plotting and statistical analysis.
# To compare the toxic effects of compounds on AMOs and 2D-cultured midbrain dopaminergic neurons, we seeded and cultured both in parallel and generated them from the same smNPC starting cell population. For 2D dopaminergic neuron differentiation, smNPCs were seeded in 1% (v/v in KO-DMEM/F-12) Matrigel-coated 6-well plates and standard smNPC medium, following digestion by accutase as described above. From day 2 onwards, they were treated identically with the AMOs (i.e., they received the same media at the same timepoints). To work with the 2D dopaminergic neurons in a screening setting (and have the same plate format as the AMOs), we reseeded them to flat-bottom 96-well plates (“μCLEAR”, black, Greiner) at a density of 70,000 cells/well on day 48. On day 49, the medium of both 2D mDA neurons and 3D AMOs was exchanged to tox medium. The next day, we treated them with different concentrations (0.01, 0.1, 1, 10, 50, 100, 200, 500, and 1,000 μM; controls received the corresponding solvent at an amount equivalent to the highest compound concentration; n = 6 per concentration) of the compounds lindane (Sigma-Aldrich, in ethanol) and 6-hydroxydopamine hydrochloride (Sigma Aldrich, in DMSO) in tox medium. After 48 h of incubation, we measured the samples’ viability. For the AMOs, we used the CellTiter-Glo 3D cell viability assay as described above. We measured the 2D mDA neuron viability with the CellTiter-Glo 2.0 cell viability assay (Promega) according to the manufacturer’s instructions. In short, we brought the sample plates and reagents to room temperature for 30 min. We adjusted the media volume of the samples to 50 μl and added an equal volume (50 μl) of the CellTiter-Glo 2.0 reagent. We let the plate shake for 2 min at 900 rpm on a Thermomixer and then incubated them for 10 min at room temperature and protected from light. Immediately afterward, we measured the luminescence on a Synergy Mx plate reader. […]
# [3] = system: automated midbrain organoids (AMOs); assay: Primary organoid viability screen (ATP-based CellTiter-Glo 3D); assay type: cell-based, human; settings: approx. 100 μM, 48 or 96 h, two AMO lines
# [4] = system: 2D-cultured midbrain dopaminergic (mDA) neurons; assay: Viability of 2D-cultured mDA neurons (CellTiter-Glo 2.0) in the 2D vs 3D comparison; assay type: cell-based; settings: Homo sapiens, Neuron, 2D mDA neurons, 48 h exposure from day 50
# Experimental: To compare the toxic effects of compounds on AMOs and 2D-cultured midbrain dopaminergic neurons, we seeded and cultured both in parallel and generated them from the same smNPC starting cell population. For 2D dopaminergic neuron differentiation, smNPCs were seeded in 1% (v/v in KO-DMEM/F-12) Matrigel-coated 6-well plates and standard smNPC medium, following digestion by accutase as described above. From day 2 onwards, they were treated identically with the AMOs (i.e., they received the same media at the same timepoints). To work with the 2D dopaminergic neurons in a screening setting (and have the same plate format as the AMOs), we reseeded them to flat-bottom 96-well plates (“μCLEAR”, black, Greiner) at a density of 70,000 cells/well on day 48. On day 49, the medium of both 2D mDA neurons and 3D AMOs was exchanged to tox medium. The next day, we treated them with different concentrations (0.01, 0.1, 1, 10, 50, 100, 200, 500, and 1,000 μM; controls received the corresponding solvent at an amount equivalent to the highest compound concentration; n = 6 per concentration) of the compounds lindane (Sigma-Aldrich, in ethanol) and 6-hydroxydopamine hydrochloride (Sigma Aldrich, in DMSO) in tox medium. After 48 h of incubation, we measured the samples’ viability. For the AMOs, we used the CellTiter-Glo 3D cell viability assay as described above. We measured the 2D mDA neuron viability with the CellTiter-Glo 2.0 cell viability assay (Promega) according to the manufacturer’s instructions. In short, we brought the sample plates and reagents to room temperature for 30 min. We adjusted the media volume of the samples to 50 μl and added an equal volume (50 μl) of the CellTiter-Glo 2.0 reagent. We let the plate shake for 2 min at 900 rpm on a Thermomixer and then incubated them for 10 min at room temperature and protected from light. Immediately afterward, we measured the luminescence on a Synergy Mx plate reader. We outputted the results to Microsoft Excel and GraphPad Prism v9.0.1 for reformatting, plotting, and analysis. Data processing was performed as outlined for the CellTiter-Glo 3D-based viability assay above, except for the averaging of technical replicates, as measurements were performed directly in the culture plate without additional technical replicates.
# All other data analysis steps including the statistical analysis to identify significant differences in toxicity between 2D and 3D (via multiple unpaired t-tests with the same parameters as above, corrected for using the Bonferroni-Dunn method, and considering padj <0.05 as significant), as well as dose-response curve fitting, were performed as described in detail above. The IC50 values were taken from the same regression/analysis as the dose-response curves.
smiles,measurement,setting,value
Cl[C@H]1[C@H](Cl)[C@@H](Cl)[C@@H](Cl)[C@H](Cl)[C@H]1Cl [lindane],toxicity of lindane alone,[1],only mild toxicity
same,concentrations with significant 2D vs 3D viability difference,"[2]; AMO line 1, 48 h",≥ 200 µM
same,concentrations with significant 2D vs 3D viability difference,"[2]; AMO line 2, 48 h",200 µM
same,IC50,"[2]; AMO line 1, 3D",130 µM
same,IC50,"[2]; AMO line 2, 3D",130 µM
same,toxicity in 3D AMOs compared with 2D-cultured dopaminergic neurons,"[2]; both cell lines, 48 h, 0.01-1,000 μM, padj < 0.05",significantly more toxic in AMOs than in the 2D-cultured dopaminergic neurons
same,toxicity in the primary screens,[3],strong possible toxicity
same,IC50,[4]; AMO line 1 cell line,202 µM
same,IC50,[4]; AMO line 2 cell line,201 µM

# Reference: PMC8321240, “Cell-Type-Specific High Throughput Toxicity Testing in Human Midbrain Organoids” (Frontiers in Molecular Neuroscience, 2021)
